US20210255193A1, “LYSINE REACTIVE PROBES AND USES THEREOF” (The Scripps Research Institute, priority 2017, published 2021)

Experiments:
Assay in all cases: competitive isoTOP-ABPP
Format in all cases: binding
Conditions in all cases: 50 uM, in vitro, sol, 231
[1] = molecular target: T1, ARL6IP1 ADP-ribosylation factor-like protein 6-interacting (Homo sapiens, UniProt Q15041)
T1 construct: isoTOP-ABPP experiments performed in cell lysates (in vitro); endogenous in cells; host or cells: soluble proteome of human cancer cell lines (MDA-MB-231; Ramos and Jurkat also prepared)
T1 sequence (Q15041 whole entry): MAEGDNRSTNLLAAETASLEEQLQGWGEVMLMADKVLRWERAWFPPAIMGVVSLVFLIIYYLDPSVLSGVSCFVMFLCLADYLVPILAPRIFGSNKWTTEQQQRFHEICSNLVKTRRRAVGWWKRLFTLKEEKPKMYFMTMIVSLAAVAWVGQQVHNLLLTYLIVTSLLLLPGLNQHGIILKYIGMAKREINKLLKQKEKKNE
How it was run: (§1)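 Readout: isotopic light/heavy MS1 peak-area ratio (R, DMSO heavy over compound light), median across peptides sharing a modified lysine. Lysate received fragment (activated esters 50 μM, guanidinylating agents 100 μM final) or DMSO, then 0.1 mM STP-alkyne probe for 1 h at ambient temperature.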

DTYMK Thymidylate kinase = molecular target: T2, DTYMK Thymidylate kinase (Homo sapiens, UniProt P23919)
T2 construct: isoTOP-ABPP experiments performed in cell lysates (in vitro); endogenous in cells; host or cells: soluble proteome of human cancer cell lines (MDA-MB-231; Ramos and Jurkat also prepared)
T2 sequence (P23919 1-212): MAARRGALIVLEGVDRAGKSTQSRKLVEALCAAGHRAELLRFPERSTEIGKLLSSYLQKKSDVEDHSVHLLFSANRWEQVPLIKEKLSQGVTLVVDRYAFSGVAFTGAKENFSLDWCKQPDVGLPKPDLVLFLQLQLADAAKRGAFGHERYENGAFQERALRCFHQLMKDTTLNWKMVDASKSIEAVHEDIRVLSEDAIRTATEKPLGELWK
How it was run: as §1

[2] = molecular target: T3, EEF1G Elongation factor 1-gamma (Homo sapiens, UniProt P26641)
T3 construct: isoTOP-ABPP experiments performed in cell lysates (in vitro); endogenous in cells; host or cells: soluble proteome of human cancer cell lines (MDA-MB-231; Ramos and Jurkat also prepared)
T3 sequence (P26641 whole entry): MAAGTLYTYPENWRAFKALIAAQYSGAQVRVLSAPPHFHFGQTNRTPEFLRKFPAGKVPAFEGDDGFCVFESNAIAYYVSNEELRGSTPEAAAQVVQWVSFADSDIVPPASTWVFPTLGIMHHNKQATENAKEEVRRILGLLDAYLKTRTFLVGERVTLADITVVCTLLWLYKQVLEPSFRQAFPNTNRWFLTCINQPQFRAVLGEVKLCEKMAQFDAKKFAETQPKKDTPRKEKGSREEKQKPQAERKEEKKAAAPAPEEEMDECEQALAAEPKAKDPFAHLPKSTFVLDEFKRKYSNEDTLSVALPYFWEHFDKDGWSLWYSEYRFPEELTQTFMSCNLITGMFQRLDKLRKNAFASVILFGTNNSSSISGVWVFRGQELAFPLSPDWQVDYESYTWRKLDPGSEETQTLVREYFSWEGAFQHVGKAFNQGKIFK
How it was run: as §1

[3] = molecular target: T4, ETFA Electron transfer flavoprotein subunit alpha, mitochondrial (Homo sapiens, UniProt P13804)
T4 construct: isoTOP-ABPP experiments performed in cell lysates (in vitro); endogenous in cells; host or cells: soluble proteome of human cancer cell lines (MDA-MB-231; Ramos and Jurkat also prepared)
T4 sequence (P13804 20-333): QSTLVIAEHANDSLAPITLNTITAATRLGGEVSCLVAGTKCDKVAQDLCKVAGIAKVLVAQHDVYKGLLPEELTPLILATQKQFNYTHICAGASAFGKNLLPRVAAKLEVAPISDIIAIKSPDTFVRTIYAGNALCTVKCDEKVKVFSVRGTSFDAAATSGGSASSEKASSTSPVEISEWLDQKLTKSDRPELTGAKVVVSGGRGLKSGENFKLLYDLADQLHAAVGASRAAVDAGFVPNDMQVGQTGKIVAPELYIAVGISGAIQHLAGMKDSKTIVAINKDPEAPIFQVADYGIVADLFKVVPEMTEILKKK
T4 sequence (P38117 2-255 partner limits assumed): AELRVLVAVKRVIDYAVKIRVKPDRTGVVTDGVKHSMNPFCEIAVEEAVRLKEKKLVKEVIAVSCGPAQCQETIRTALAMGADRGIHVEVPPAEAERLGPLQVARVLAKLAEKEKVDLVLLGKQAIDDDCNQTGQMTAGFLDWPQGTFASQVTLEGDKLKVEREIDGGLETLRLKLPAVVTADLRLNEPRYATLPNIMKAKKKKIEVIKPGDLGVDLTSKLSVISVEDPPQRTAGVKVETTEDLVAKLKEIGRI
How it was run: as §1

CC(C)(C)OC(=O)NCCCC(=O)Oc1ccc([N+](=O)[O-])cc1[N+](=O)[O-] [fragment 41, 2,4-Dinitrophenyl 4-((tert-butoxycarbonyl)amino)butanoate]
isoTOP-ABPP ratio (R) at liganded lysine Q15041_K188 [1]: 1.3
isoTOP-ABPP ratio (R) at liganded lysine P23919_K118 (DTYMK Thymidylate kinase): 0.8
isoTOP-ABPP ratio (R) at liganded lysine P26641_K227 [2]: 0.8
isoTOP-ABPP ratio (R) at liganded lysine P13804_K139 [3]: 20.0
